The values that follow come from patent US20080220416A1, “Compositions for Inhibiting Cell Growth and Inducing Apoptosis in Cancer Cells and Methods of Use Thereof” (THE BOARD OF TRUSTEES OF THE UNIVERSITY OF ILLINOI, priority 2004, published 2008).

For experiment [1], the system named is NOXA. Description: NOXA in whole cell protein extracts of subcutaneous C8161 tumors. As to conditions: 2.5 mg/kg; versus PBS. Format: in vivo, Nude mice.
Method: Initially, 1×10^6 aggressive melanoma cells (C8161) (ATCC, Rockville, Md.) were injected subcutaneously in Nude (nulnu) mice (6-7 weeks old; Harlan, Indianapolis, Ind.) on day 0, and the tumors were allowed bearing groups (5 mice/group) and injected with either (a) PBS as control; (b) bortezomib at 1.25 mg/kg; or (c) bortezomib at 2.5 mg/kg. Treatment began on day 8 when tumors were palpable and injected four times peri-tumorally. On day 20, mice were euthanized and tumors dissected from surrounding tissue and weighted. […] Expanding the in vitro studies to in vivo studies, subcutaneous tumors produced in Nude mice (as described above in Example 7) were tested to detect NOXA using whole cell protein extracts as described above.
Experiment [2] concerns NOXA. The experiment can be described thus: Bortezomib on NOXA in SAOS2 osteogenic sarcoma cells (Western blot). Format: cell-based. Particulars: SAOS2, p53-null; 1 μM; 24 hr exposure. As for the experimental part: To test whether the NOXA inducing effect of bortezomib is limited to melanomas, SAOS2 cells (ATTC, Rockville, Md.), an osteogenic sarcoma cell line (p53-null) was exposed to 1 μM bortezomib. SAOS2 cells were tested for p53 expression and induction of NOXA expression before and during a 24 hr exposure to bortezomib (1 μM). The cells were assayed by Western blot using antibodies to NOXA, p53 and β-actin as described above.
On the technique in general: In western blotting, separated proteins are transferred to a membrane and probed.

The next experiment concerns melanoma cell lines. Description: Apoptosis of melanoma cell lines treated with z-Leu-Leu-Nle-CHO (Annexin V FITC / propidium iodide flow cytometry). Format: cell-based, human. Particulars: each of nine melanoma cell lines; 10 μM for 24 h. As for the experimental part: (§1) The effect of z-Leu-Leu-Nle-CHO on apoptosis was tested in vitro using normal human melanocytes and several melanoma cell cultures. Prior to testing, cutaneous (C8161, SK-MeI-28, SK-MeI-100, SK-MeI-5, C81-61), uveal or ocular (MUM2B, MUM2C, OCM-1A), and pulmonary metastases (RJ002L) melanoma cell lines were maintained in RPMI supplemented with 10% FBS. Normal human melanocytes were isolated from neonatal foreskins as previously described (Qin J et al., 2004, Mol Cancer Ther 3:895-902) and cultured with medium 154 containing growth supplements (Cascade Biologics, Portland, Oreg.).
(§2) To assess the effect of z-Leu-Leu-Nle-CHO on the cell lines, the cells were grown in suitable culture media. Highly proliferating cells (i.e., cells that had reached approximately 30% confluency) were exposed to z-Leu-Leu-Nle-CHO as described below. […]
(§3) Following treatment with z-Leu-Leu-Nle-CHO, the melanoma and melanocyte cell cultures were assayed for apoptotic cells using the APO TARGET Annexin V FITC staining kit (Biosource, Camarillo, Calif.) according to the manufacturer's instructions followed by flow cytometric analysis using FACScaliber (Becton Dickinson, Palo Alto, Calif.) as described in Qin, J. et al., 2001, Nat Med 7:385-386. In some cases, cell cycle and apoptosis analysis was measured using propidium iodide staining and flow cytometry as described. […]

The next experiment relates to PC-3 prostate cells. The experiment can be described thus: z-Leu-Leu-Nle-CHO on NOXA and apoptosis in PC-3 prostate cells. In kind it is cell-based. Particulars: 10 μM.
The subject of experiment [3] is NOXA. Description: Western blot of pro-survival and pro-apoptotic proteins in melanoma cells. Particulars: 10 μM. Format: cell-based, human. As for the experimental part:
To assess the effect of z-Leu-Leu-Nle-CHO on pro-apoptotic proteins, RJ002L pulmonary metastases melanoma cells were grown in RPMI supplemented with 10% FBS. Highly proliferating cells (i.e., cells that had reached approximately 30% confluency) were exposed to z-Leu-Leu-Nle-CHO by replenishing the culture media with media containing z-Leu-Leu-Nle-CHO (10 μM) (experimental group) or media without z-Leu-Leu-Nle-CHO (control group) and the cells were incubated for a specified period of time prior to harvesting the cells for further analysis.
Western blot analyses following z-Leu-Leu-Nle-CHO and control treatment of RJ002L melanoma cells were performed to determine the effect of z-Leu-Leu-Nle-CHO on pro-survival and pro-apoptotic proteins. Whole cell extracts were prepared and analyzed as described by Denning, M. F. et al., 1998, J Biol Chem 273: 29995-30002, 1998. The enriched mitochondria pellet and mitochondria-free cytosol of melanoma cells were prepared with the APO ALERT cell fraction kit (Clontech Laboratories, Inc. Palo Alto, Calif.) according to the manufacturer's instructions. For Western blot analysis, equal amounts of protein extracted from each sample (20-30 μg) were loaded into pre-cast 7% NuPAGE Tris-acetate gels or 4-12% NuPAGE Bis-tris gels (Invitrogen). Proteins were separated by SDS-PAGE and transferred to polyvinylidene difluoride membranes (Bio-Rad, Hercules, Calif.) using Invitrogen's buffering system. The indicated primary antibodies were incubated for indicated period of time, washed, and visualized by incubation with horseradish peroxidase-conjugated secondary antibodies and chemiluminescent reagents (Roche Diagnostics Corporation, Indianapolis, Ind.). Antibodies used were as follows: From Santa Cruz Biotechnology: Bcl-2 (SC-7382), BCl-xL (SC-634), Mcl-1 (SC-819), survivin (SC-10811), Bax (SC-493), Bak (SC-832), Bim (SC-11425), PUMA (SC-19187), p53 (SC-126), and GADD45 (SC-796); From Cell Signaling: Bid (#2002), and cleaved caspase 9 (9501); NOXA (OP180—Oncogene Research Products), Apaf-1 (559683-BD Bioscience), Smac/Diablo (IMG-248-Imgenex), cytochrome C (part of kit—Apo Alert™ cell fraction kit—Clontech Laboratories, Inc.—Palo Alto, Calif.), PARP (Pharmingen, San Diego, Calif.) and β-actin (Sigma Chemical Co., St. Louis, Mo.). Secondary antibodies anti-goat, anti-mouse, anti-rabbit and anti-rat (IgG-HRP) were purchased from Vector Laboratories (Burlingame, Calif.), Santa Cruz Biotechnology and Amersham Biosciences.
To determine if p53 status influences induction of NOXA, NOXA induction in z-Leu-Leu-Nle-CHO-treated melanoma cell lines (10 μM) containing p53 mutations (i.e. C8161, SK-MeI-28, MUM2B) were examined using Western blot analysis as described above and compared to that of Western blot results from z-Leu-Leu-Nle-CHO-treated melanoma cell lines (10 μM) having wild-type p53 (RJ002L, SK-MeI-100). […] In contrast, C8161, which carries a R196Stop mutation in only one allele, has p53 expression similar to that observed in wild-type cell lines. […] NOXA induction occurred earlier in SK-MeI-100 cells than in the other tested cell lines (FIG. 2C). Apaf-1 levels were not increased in response to z-Leu-Leu-Nle-CHO (data not shown).

Another experiment relates to normal human melanocytes. Description: Apoptosis and cell cycle of normal human melanocytes treated with z-Leu-Leu-Nle-CHO. Format: cell-based. As for the experimental part:
as §1, §2, §3

Square brackets hold non-standard residues; d marks the D form. Peptide text beside a SMILES is read from it. * marks the point of attachment. Nle = CCCC[C@H](N)C(=O)O; Cbz = O=C(OCc1ccccc1)*

Consider `CC(C)C[C@H](NC(=O)[C@H](Cc1ccccc1)NC(=O)c1cnccn1)B(O)O` [bortezomib, N-(2-pyrazine)carbonyl-L-phenylalanine-L-leucine boronic acid], for which the “NOXA in treated tumors” value in the experiment with NOXA [1] was “did induce NOXA in these treated tumors”. Besides, the “time course of NOXA induction” value in the experiment with NOXA [2] was “induction of NOXA occurred beginning at 3-6 hrs with more prominent levels detected at 18-24 hrs”.
Regarding `CCCC[C@@H](C=O)NC(=O)[C@H](CC(C)C)NC(=O)[C@H](CC(C)C)NC(=O)OCc1ccccc1` [z-Leu-Leu-Nle-CHO, N-benzyloxycarbonyl-leucyl-leucyl-norleucinal] (Cbz-Leu-Leu-[Nle]-aldehyde), the induction of apoptosis entry with melanoma cell lines was “triggered a dose-dependent increase in apoptosis”; in the experiment with normal human melanocytes (MC004, MC007, 1-10 μM for 18 h), “did not significantly induce apoptosis”. Also, the NOXA expression result with PC-3 prostate cells (PC-3, p53 null) is reported as “induced expression of NOXA”. The molecule also returned a dead cells in the experiment on PC-3 prostate cells (PC-3, after 24 hrs, data not shown) of over 50%. In the experiment on NOXA [3] (RJ002L), the “induction of pro-apoptotic proteins” value was “induced expression of Bak, Bim, and NOXA”. Also, the “time course of NOXA induction” value in the experiment on NOXA [3] (RJ002L) is “detectable as early as 1 hr and was massive by 6-18 hrs”. Also, the NOXA induction result in the experiment on NOXA [3] (all tested melanoma cell lines, regardless of p53 mutation status) is “induced NOXA in all tested melanoma cell lines”. Moreover, in the experiment on normal human melanocytes (10 μM for 24 h), the cell cycle effect result is given as “induce a G2/M growth arrest”.
